Data on 36 molecules can be found in ChEMBL document CHEMBL5385857, “Optimization and SAR research at the benzoxazole and tetrazole rings of JNJ4796 as new anti-influenza A virus agents, part 2” (Eur J Med Chem, 2023).

One data set concerns Influenza A virus. The experiment in a line: Antiviral activity against influenza A virus H1N1 infected in MDCK cells. It counts as functional, organism-based.
The nature of data set [1]: Cytotoxicity against MDCK cells. The data set is classed as toxicity, cell-based, Canis lupus familiaris. As to conditions: dog.
Data set [2] can be described thus: Selectivity index, ratio of CC50 for MDCK cells to IC50 for influenza A virus infected in MDCK cells. It counts as toxicity, cell-based. As to conditions: dog, read-out: Ratio CC50/IC50.

For `CCC(=O)Nc1ccc2oc(-c3ccnc(C(=O)N4CCN(C(c5ccc(F)cc5)c5nnn(C)n5)CC4)c3)nc2c1` (stereo unspecified), in the data set on Influenza A virus, it took 0.45 µM to reach half-maximal inhibition (IC50). Besides, in data set [1], the CC50 (in general, the concentration that lowers cell viability or growth by half) was over 50 µM.
With `CC(=O)Nc1ccc2oc(-c3ccnc(C(=O)N4CCN(C(c5ccc(F)cc5)c5nnn(CCC6CCCCC6)n5)CC4)c3)nc2c1` (stereo unspecified), the half-inhibitory concentration (IC50) – broadly, the point on the concentration scale where inhibition reaches its midpoint – in the data set on Influenza A virus was 0.82 µM. Also, in data set [1], the CC50 is over 50 µM.
`CCC(CC)C(=O)Nc1ccc2oc(-c3ccnc(C(=O)N4CCN(C(c5ccc(F)cc5)c5nnn(C)n5)CC4)c3)nc2c1` (stereo unspecified) had a 50% inhibitory concentration (IC50) with Influenza A virus of 0.36 µM. This molecule gave a cytotoxic concentration (CC50) in data set [1] of 28.6 µM.
As for `CC(=O)Nc1ccc2oc(-c3ccnc(C(=O)N4CCN(C(c5ccc(F)cc5)c5nnn(CCC(C)C)n5)CC4)c3)nc2c1` (stereo unspecified), the concentration for half-maximal inhibition (IC50) in the data set on Influenza A virus worked out at 0.35 µM. In addition, the CC50 in data set [1] was over 50 µM.
In the case of `CC(=O)Nc1ccc2oc(-c3ccnc(C(=O)N4CCN([C@@H](c5ccc(F)cc5)c5nnn(C6CCCC6)n5)CC4)c3)nc2c1`, the selectivity ratio in data set [2] is 188. The molecule further displayed an IC50 in the data set with Influenza A virus of 0.51 µM. This molecule displayed a CC50 in data set [1] of 96.2 µM.
As for `Cn1nnc(C(c2ccc(F)cc2)N2CCN(C(=O)c3cc(-c4nc5cc(NC(=O)C6CCCO6)ccc5o4)ccn3)CC2)n1` (stereo unspecified), the half-maximal inhibitory concentration (IC50) with Influenza A virus was 0.82 µM. The same molecule displayed a CC50 in data set [1] of over 50 µM.
For the molecule `Cn1nnc(C(c2ccc(F)cc2)N2CCN(C(=O)c3cc(-c4nc5cc(NC(=O)c6ccccc6)ccc5o4)ccn3)CC2)n1` (stereo unspecified), half-maximal inhibition with Influenza A virus (IC50) was put at 0.63 µM. In addition, in data set [1], the CC50 was determined as 10.7 µM.
Consider `CC(=O)Nc1ccc2oc(-c3ccnc(C(=O)N4CCN([C@@H](c5ccc(F)cc5)c5nnn(CCC(C)C)n5)CC4)c3)nc2c1`, for which the selectivity ratio in data set [2] is over 39. The molecule also showed a half-maximal inhibitory concentration (IC50) with Influenza A virus of 2.51 µM. For the same molecule, the cytotoxic concentration (CC50) in data set [1] was over 100 µM.
`CC(=O)Nc1ccc2oc(-c3ccnc(C(=O)N4CCN(C(c5ccc(F)cc5)c5nnn(C6CCCCC6)n5)CC4)c3)nc2c1` (stereo unspecified) returned an IC50 in the data set on Influenza A virus of 0.27 µM. For the same molecule, the CC50 in data set [1] is over 50 µM.
On to `CCC(CC)n1nnc(C(c2ccc(F)cc2)N2CCN(C(=O)c3cc(-c4nc5cc(NC(C)=O)ccc5o4)ccn3)CC2)n1` (stereo unspecified), for which the IC50 in the data set on Influenza A virus amounted to 0.36 µM. The same molecule returned a CC50 in data set [1] of over 50 µM.
Regarding `CCC(CC)n1nnc([C@H](c2ccc(F)cc2)N2CCN(C(=O)c3cc(-c4nc5cc(NC(C)=O)ccc5o4)ccn3)CC2)n1`, in data set [2], the selectivity ratio is over 250. In addition, inhibition in the data set with Influenza A virus was half-maximal at 0.4 µM (IC50). This molecule also displayed a half-maximal cytotoxic concentration (CC50) in data set [1] of over 100 µM.
In the data set with Influenza A virus, `C=Cn1nnc(C(c2ccc(F)cc2)N2CCN(C(=O)c3cc(-c4nc5cc(NC(C)=O)ccc5o4)ccn3)CC2)n1` (stereo unspecified) displayed an IC50 of 0.27 µM. Further, the CC50 in data set [1] was over 50 µM.
In the data set with Influenza A virus, `CCn1nnc(C(c2ccc(F)cc2)N2CCN(C(=O)c3cc(-c4nc5cc(NC(C)=O)ccc5o4)ccn3)CC2)n1` (stereo unspecified) had a half-maximal inhibitory concentration (IC50) of 0.63 µM. Besides, the CC50 in data set [1] was over 50 µM.
In the data set on Influenza A virus, `CC(=O)Nc1ccc2oc(-c3ccnc(C(=O)N4CCN(C(c5ccc(F)cc5)c5nnn(C6CCOCC6)n5)CC4)c3)nc2c1` (stereo unspecified) came in with a half-inhibitory concentration (IC50) of 1.08 µM. The molecule also gave a CC50 in data set [1] of over 50 µM.
In the data set with Influenza A virus, `CCCCn1nnc(C(c2ccc(F)cc2)N2CCN(C(=O)c3cc(-c4nc5cc(NC(C)=O)ccc5o4)ccn3)CC2)n1` (stereo unspecified) showed a half-maximal inhibitory concentration (IC50) of 0.38 µM. In addition, the 50% cytotoxic concentration (CC50) in data set [1] is over 50 µM.
In the case of `Cn1nnc(C(c2ccc(F)cc2)N2CCN(C(=O)c3cc(-c4nc5cc(NC(=O)C(C)(C)C)ccc5o4)ccn3)CC2)n1` (stereo unspecified), in the data set with Influenza A virus, the IC50 was found to be 0.35 µM. Also, in data set [1], the CC50 is 12.8 µM.
As for `CC(=O)Nc1ccc2sc(-c3ccnc(C(=O)N4CCN(C(c5ccccc5)c5nnn(C(C)C)n5)CC4)c3)nc2c1` (stereo unspecified), the concentration for half-maximal inhibition (IC50) with Influenza A virus was determined as 1.43 µM. In addition, the CC50 in data set [1] is over 50 µM.
For `C=Cn1nnc([C@H](c2ccc(F)cc2)N2CCN(C(=O)c3cc(-c4nc5cc(NC(C)=O)ccc5o4)ccn3)CC2)n1`, the selectivity ratio in data set [2] was over 34. The midpoint of inhibition with Influenza A virus, the IC50, lay at 2.93 µM. For the same molecule, the CC50 in data set [1] was over 100 µM.
`CCCCn1nnc([C@@H](c2ccc(F)cc2)N2CCN(C(=O)c3cc(-c4nc5cc(NC(C)=O)ccc5o4)ccn3)CC2)n1`: the selectivity ratio in data set [2] was over 714. The same molecule registered an IC50 in the data set on Influenza A virus of 0.14 µM. This molecule also gave a 50% cytotoxic concentration (CC50) in data set [1] of over 100 µM.
In the case of `CC(=O)Nc1ccc2sc(-c3ccnc(C(=O)N4CCN(C(c5ccccc5)c5nnnn5C(C)C)CC4)c3)nc2c1` (stereo unspecified), the 50% inhibitory concentration (IC50) in the data set with Influenza A virus was over 15 µM. For the same molecule, the CC50 in data set [1] was found to be 38.5 µM.
In the data set with Influenza A virus, `CC(=O)Nc1ccc2oc(-c3ccnc(C(=O)N4CCN(C(c5ccc(F)cc5)c5nnn(C6CCCC6)n5)CC4)c3)nc2c1` (stereo unspecified) gave a half-inhibitory concentration (IC50) of 0.26 µM. Moreover, in data set [1], the 50% cytotoxic concentration (CC50) was over 50 µM.
On to `CCC(CC)n1nnc([C@@H](c2ccc(F)cc2)N2CCN(C(=O)c3cc(-c4nc5cc(NC(C)=O)ccc5o4)ccn3)CC2)n1`, for which, in data set [2], the selectivity ratio was over 1110. For the same molecule, in the data set on Influenza A virus, it took 0.09 µM to reach half-maximal inhibition (IC50). In data set [1], this molecule registered a CC50 of over 100 µM.
In the data set on Influenza A virus, `Cn1nnc(C(c2ccc(F)cc2)N2CCN(C(=O)c3cc(-c4nc5cc(NC(=O)C6CCCCC6)ccc5o4)ccn3)CC2)n1` (stereo unspecified) gave an IC50 of 0.82 µM. Moreover, the midpoint of cytotoxicity in data set [1], the CC50, lay at 1.43 µM.
`CCCn1nnc(C(c2ccc(F)cc2)N2CCN(C(=O)c3cc(-c4nc5cc(NC(C)=O)ccc5o4)ccn3)CC2)n1` (stereo unspecified) showed an IC50 in the data set on Influenza A virus of 0.63 µM. This molecule showed a half-maximal cytotoxic concentration (CC50) in data set [1] of over 50 µM.
Take `CC(=O)Nc1ccc2oc(-c3ccnc(C(=O)N4CCN(C(c5ccccc5)c5nnnn5C(C)C)CC4)c3)nc2c1` (stereo unspecified): the IC50 with Influenza A virus was over 15 µM. In data set [1], this molecule displayed a CC50 of over 50 µM.
Turning to `CC(=O)Nc1ccc2oc(-c3ccnc(C(=O)N4CCN(C(c5ccccc5)c5nnn(C(C)C)n5)CC4)c3)nc2c1` (stereo unspecified), the midpoint of inhibition in the data set on Influenza A virus, the IC50, lay at 0.15 µM. Further, the cytotoxic concentration (CC50) in data set [1] is over 50 µM.
Regarding `CCCC(=O)Nc1ccc2oc(-c3ccnc(C(=O)N4CCN(C(c5ccc(F)cc5)c5nnn(C)n5)CC4)c3)nc2c1` (stereo unspecified), the IC50 in the data set on Influenza A virus came to 0.63 µM. Further, the 50% cytotoxic concentration (CC50) in data set [1] is over 50 µM.
`CC(=O)Nc1ccc2oc(-c3ccnc(C(=O)N4CCN([C@H](c5ccc(F)cc5)c5nnn(CCC(C)C)n5)CC4)c3)nc2c1`: in data set [2], the selectivity ratio was over 384. Further, it took 0.26 µM to reach half-maximal inhibition in the data set with Influenza A virus (IC50). The molecule further came in with a 50% cytotoxic concentration (CC50) in data set [1] of over 100 µM.
With `Cn1nnc(C(c2ccc(F)cc2)N2CCN(C(=O)c3cc(-c4nc5cc(NC(=O)C6CCCC6)ccc5o4)ccn3)CC2)n1` (stereo unspecified), the half-inhibitory concentration (IC50) with Influenza A virus turned out to be 0.63 µM. In addition, the cytotoxic concentration (CC50) in data set [1] is 5.14 µM.
In the case of `COCCn1nnc(C(c2ccc(F)cc2)N2CCN(C(=O)c3cc(-c4nc5cc(NC(C)=O)ccc5o4)ccn3)CC2)n1` (stereo unspecified), in the data set with Influenza A virus, the IC50 turned out to be 2.47 µM. Moreover, the 50% cytotoxic concentration (CC50) in data set [1] was over 50 µM.
With `CC(=O)Nc1ccc2oc(-c3ccnc(C(=O)N4CCN(C(c5ccc(F)cc5)c5nnn(C6CC6)n5)CC4)c3)nc2c1` (stereo unspecified), in the data set with Influenza A virus, the 50% inhibitory concentration (IC50) is 1.19 µM. Also, in data set [1], the CC50 was over 50 µM.
Turning to `Cn1nnc(C(c2ccc(F)cc2)N2CCN(C(=O)c3cc(-c4nc5cc(NC(=O)c6ccco6)ccc5o4)ccn3)CC2)n1` (stereo unspecified), the IC50 in the data set on Influenza A virus was determined as 0.22 µM. In data set [1], this molecule gave a CC50 of 12.8 µM.
Regarding `CC(=O)Nc1ccc2oc(-c3ccnc(C(=O)N4CCN([C@@H](c5ccccc5)c5nnn(C(C)C)n5)CC4)c3)nc2c1`, the selectivity ratio in data set [2] was over 120. Moreover, half-maximal inhibition in the data set with Influenza A virus (IC50) required 0.83 µM. The CC50 in data set [1] was over 100 µM.
As for `CC(=O)Nc1ccc2oc(-c3ccnc(C(=O)N4CCN([C@H](c5ccccc5)c5nnn(C(C)C)n5)CC4)c3)nc2c1`, the selectivity ratio in data set [2] was over 1000. The molecule also returned a concentration for half-maximal inhibition (IC50) in the data set on Influenza A virus of 0.1 µM. The 50% cytotoxic concentration (CC50) in data set [1] is over 100 µM.
In the data set on Influenza A virus, `CC(=O)Nc1ccc2oc(-c3ccnc(C(=O)N4CCN(C(c5ccc(F)cc5)c5nnn(CC6CCCCC6)n5)CC4)c3)nc2c1` (stereo unspecified) yielded an IC50 of 0.36 µM. The CC50 in data set [1] was 38.5 µM.
Molecule `CC(=O)Nc1ccc2oc(-c3ccnc(C(=O)N4CCN(C(c5ccc(F)cc5)c5nnn(C(C)C)n5)CC4)c3)nc2c1` (stereo unspecified) yielded an IC50 in the data set with Influenza A virus of 0.22 µM. Also, in data set [1], the CC50 was over 50 µM.
